Experimental data from patent publication US10124004B2, “Pyrido[3,4-d]pyrimidine derivative and pharmaceutically acceptable salt thereof” (Teijin Pharma Limited, priority 2015, dated 2018).
Like-named read-outs stand apart in the source and are kept apart here.

What was measured:
[1] = molecular target: T1, CDK4/cyclin D3 (Homo sapiens, UniProt P11802); assay: Human CDK4/cyclin D3 inhibitory activity (QS S Assist CDK4/Cyclin D3_FP Kit, IMAP fluorescence polarization); type: biochemical
T1 construct: purchased Carna Biosciences, Inc. QS S Assist CDK4/Cyclin D3_FP Kit
In short: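 IMAP fluorescence polarization kit: CDK4/cyclin D3 at 12.5-25 ng/well with kit ATP/substrate/metal mix in 20 mM HEPES pH 7.4, 0.01% Tween20, 2 mM DTT, 45 min at room temperature. FP read at 485/535 nm after 30 min binding; IC50 from dose-response fit of percent inhibition versus enzyme and no-enzyme controls.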

[2] = molecular target: T2, CDK2/cyclin A2 (Homo sapiens, UniProt P24941); assay: Human CDK2/cyclin A2 inhibitory activity (QS S Assist CDK2/Cyclin A2_FP Kit, IMAP fluorescence polarization); type: biochemical
T2 construct: purchased Carna Biosciences, Inc. QS S Assist CDK2/Cyclin A2_FP Kit
In short: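 Kinase activity read as fluorescence polarization (485/535 nm) after phosphorylated fluorescent substrate binds IMAP reagent (30 min, RT, dark). Enzyme (2.5 ng/well) reacted 60 min at RT with ATP/substrate/metal in HEPES pH 7.4 buffer with Tween 20 and DTT; no-enzyme wells define 0% activity; IC50 by curve fit.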

[3] = 50% inhibitory concentration against CDK4/cyclin D3, given as class symbol
[4] = 50% inhibitory concentration against CDK2/cyclin A2, given as class symbol
[5] = Human CDK4/cyclin D3 inhibitory activity, read-out: CDK4 Activity symbol
[6] = Human CDK2/cyclin A2 inhibitory activity, read-out: CDK2 Activity symbol

T1 sequence (P11802 whole entry): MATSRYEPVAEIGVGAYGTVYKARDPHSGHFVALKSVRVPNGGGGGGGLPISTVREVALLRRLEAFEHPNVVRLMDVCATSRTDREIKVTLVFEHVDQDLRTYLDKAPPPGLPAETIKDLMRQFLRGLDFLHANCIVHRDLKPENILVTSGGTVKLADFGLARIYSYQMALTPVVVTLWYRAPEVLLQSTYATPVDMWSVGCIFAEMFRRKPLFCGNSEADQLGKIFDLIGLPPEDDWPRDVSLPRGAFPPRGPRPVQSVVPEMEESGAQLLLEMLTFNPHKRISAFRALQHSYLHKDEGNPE
T1 sequence (P30281 whole entry partner): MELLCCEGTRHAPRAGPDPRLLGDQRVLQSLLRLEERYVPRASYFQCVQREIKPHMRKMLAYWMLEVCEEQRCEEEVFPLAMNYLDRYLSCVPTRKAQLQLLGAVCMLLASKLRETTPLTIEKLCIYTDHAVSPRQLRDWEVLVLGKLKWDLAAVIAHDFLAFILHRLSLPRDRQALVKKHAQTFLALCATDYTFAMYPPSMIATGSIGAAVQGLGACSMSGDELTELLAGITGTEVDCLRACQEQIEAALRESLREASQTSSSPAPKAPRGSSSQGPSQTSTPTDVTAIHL

| IC50 [1, 3] | IC50 [2, 4] | IC50 [1, 5] | IC50 [2, 6] | SMILES |
| --- | --- | --- | --- | --- |
| < 10 nM | ≥ 100 nM | – | – | CC(O)c1cc2cnc(Nc3ccc(OC4CCNCC4F)cn3)nc2c(NC2CCCOC2)n1 (centres unmarked) [Compound 645] |
| < 10 nM | ≥ 100 nM | – | – | CC(C)Nc1nc([C@@H](C)O)cc2cnc(Nc3ccc(CN4CCN(C[C@H](C)O)CC4)cn3)nc12 [Compound 674] |
| 10 to 100 nM | ≥ 100 nM | – | – | CC(C)Nc1nc([C@@H](C)O)cc2cnc(Nc3ccc(N4CCCC(C(=O)O)C4)nn3)nc12 (some centres unmarked) [Compound 793] |
| – | – | < 10 nM | ≥ 100 nM | COC1CCN(Cc2ccc(Nc3ncc4cc([C@@H](C)OC)nc(NC(C)C)c4n3)nc2)CC1 [Compound 274] |
| < 10 nM | ≥ 100 nM | – | – | Cc1nc(Nc2ncc3cc([C@@H](C)O)nc(NC4CCC4)c3n2)ccc1N1CCNCC1 [Compound 1094] |
| < 10 nM | ≥ 100 nM | – | – | CC(C)Nc1nc([C@@H](C)O)cc2cnc(Nc3ccc(CN4CCN(C(=O)C5CCCO5)CC4)cn3)nc12 (some centres unmarked) [Compound 1192] |
| 10 to 100 nM | ≥ 100 nM | – | – | CCCNc1nc([C@@H](C)O)cc2cnc(Nc3cc(C)c(CN4CCN(CCO)CC4)cn3)nc12 [Compound 1054] |
| – | – | < 10 nM | ≥ 100 nM | CO[C@H](C)c1cc2cnc(Nc3ccc(CN4CCC(C(C)(C)O)CC4)cn3)nc2c(NC(C)C)n1 [Compound 200] |
| < 10 nM | ≥ 100 nM | – | – | COC1CCC(Nc2nc([C@@H](C)OC)cc3cnc(Nc4ccc(N5CCNCC5)nn4)nc23)CC1 (some centres unmarked) [Compound 711] |
| < 10 nM | ≥ 100 nM | – | – | CCNc1nc([C@@H](C)O)cc2cnc(Nc3ccc(CN4CCCC(O)C4)cn3)nc12 (some centres unmarked) [Compound 1080] |
| – | – | < 10 nM | 10 to 100 nM | FC(F)c1cc2cnc(Nc3ccc(N4CCNCC4)cn3)nc2c(NC2CCCC2)n1 [Compound 1] |
| – | – | < 10 nM | ≥ 100 nM | CC(C)Nc1nc([C@@H](C)O)cc2cnc(Nc3ccc(N4CCC(C)(N)CC4)nn3)nc12 [Compound 561] |
| – | – | < 10 nM | ≥ 100 nM | CC(C)Nc1nc([C@@H](C)O)c(Cl)c2cnc(Nc3ccc(CN4CCNCC4)cn3)nc12 [Compound 238] |
| 10 to 100 nM | ≥ 100 nM | – | – | COC[C@H](C)Nc1nc([C@@H](C)O)cc2cnc(Nc3ccc(OCCN(C)C)cn3)nc12 [Compound 754] |
| < 10 nM | ≥ 100 nM | – | – | CC(C)CNc1nc([C@@H](C)O)cc2cnc(Nc3ccc(CN4CCC(CO)CC4)cn3)nc12 [Compound 1024] |
| 10 to 100 nM | ≥ 100 nM | – | – | CO[C@H](C)c1cc2cnc(Nc3ccc(N4CCN(C(C)C(=O)O)CC4=O)cn3)nc2c(NC(C)C)n1 (some centres unmarked) [Compound 897] |
| 10 to 100 nM | ≥ 100 nM | – | – | CC(=O)c1cc2cnc(Nc3ccc(CN4CCN(CCO)CC4)cn3)nc2c(NCC(C)C)n1 [Compound 973] |
| – | – | 10 to 100 nM | ≥ 100 nM | CC(C)Nc1nc(C(F)F)cc2cnc(Nc3ccccn3)nc12 [Compound 82] |
| – | – | < 10 nM | ≥ 100 nM | CO[C@H](C)c1cc2cnc(Nc3ccc(OCCN4CCOCC4)cn3)nc2c(NC(C)C)n1 [Compound 282] |
| < 10 nM | ≥ 100 nM | – | – | CC(C)Sc1nc([C@@H](C)O)cc2cnc(Nc3ccc(N4CCNCC4=O)cn3)nc12 [Compound 744] |

| IC50 [1, 3] | IC50 [2, 4] | IC50 [1, 5] | IC50 [2, 6] | SMILES |
| --- | --- | --- | --- | --- |
| < 10 nM | 10 to 100 nM | – | – | CC(C)Nc1nc(C(C)O)cc2cnc(Nc3ccc(N4CCN(C(C)CO)CCC4=O)cn3)nc12 (single isomer, unassigned) [Compound 809] |
| < 10 nM | ≥ 100 nM | – | – | C[C@@H](O)c1cc2cnc(Nc3ccc(N4CCNCC4)cn3)nc2c(NCC2CC2)n1 [Compound 1051] |
| < 10 nM | ≥ 100 nM | – | – | CC(C)Nc1nc([C@@H](C)O)cc2cnc(Nc3ccc(N4CCC(C(C)(C)C(=O)O)CC4)nn3)nc12 [Compound 794] |
| < 10 nM | ≥ 100 nM | – | – | CN(C)CCN1CCc2nc(Nc3ncc4cc(C5(C)COC5)nc(N[C@H]5CCCOC5)c4n3)ccc2C1 [Compound 1179] |
| < 10 nM | ≥ 100 nM | – | – | C[C@@H](O)c1cc2cnc(Nc3ccc(C4CCNCC4)cn3)nc2c(N[C@H]2CCCOC2)n1 [Compound 957] |
| < 10 nM | ≥ 100 nM | – | – | OCCN1CCc2nc(Nc3ncc4cc(C5CCOC5)nc(N[C@H]5CC[C@H](O)CC5)c4n3)ccc2C1 (some centres unmarked) [Compound 1154] |
| < 10 nM | ≥ 100 nM | – | – | CCC(OC)c1cc2cnc(Nc3ccc(CN4CCNCC4)cn3)nc2c(NC(C)C)n1 (centres unmarked) [Compound 1067] |
| – | – | < 10 nM | 10 to 100 nM | CC(C)Nc1nc(C(F)F)cc2cnc(Nc3ccc(N4CCC(O)CC4)cn3)nc12 [Compound 50] |
| – | – | ≥ 100 nM | ≥ 100 nM | FC(F)c1cc2cnc(Nc3ccc(N4CCNCC4)cn3)nc2c(NC2COC2)n1 [Compound 33] |
| – | – | < 10 nM | ≥ 100 nM | CC(C)Nc1nc(C(C)O)cc2cnc(Nc3ccc(N4CCC(O)CC4)cn3)nc12 (centres unmarked) [Compound 61] |
| – | – | ≥ 100 nM | ≥ 100 nM | CC(C)Nc1nc(C(F)F)cc2cnc(Nc3ccc(-c4ccccc4)cn3)nc12 [Compound 99] |
| – | – | < 10 nM | 10 to 100 nM | O[C@H]1CC[C@H](Nc2nc(C(F)F)cc3cnc(Nc4ccc(N5CCNCC5)nn4)nc23)CC1 [Compound 387] |
| < 10 nM | ≥ 100 nM | – | – | CC(C)Nc1nc([C@@H](C)O)cc2cnc(Nc3ccc(N4CCN(C(C)(C)CO)CC4)nn3)nc12 [Compound 701] |
| – | – | < 10 nM | ≥ 100 nM | CC(C)Nc1nc([C@@H](C)O)cc2cnc(Nc3ccc(CN4CCN(CC(C)(C)O)CC4)cn3)nc12 [Compound 626] |
| – | – | < 10 nM | ≥ 100 nM | CC(C)Nc1nc([C@@H](C)O)cc2cnc(Nc3ccc(CN4CCC(C(C)(C)O)CC4)cn3)nc12 [Compound 549] |
| < 10 nM | ≥ 100 nM | – | – | CC(C)Nc1nc([C@@H](C)O)cc2cnc(Nc3ccc(N4CCNC(C(F)(F)F)C4)nn3)nc12 (some centres unmarked) [Compound 896] |
| < 10 nM | ≥ 100 nM | – | – | CC(C)Nc1nc([C@@H](C)O)cc2cnc(Nc3ccc(N4CCN[C@@H](C(C)C)C4=O)cn3)nc12 [Compound 765] |
| – | – | < 10 nM | ≥ 100 nM | CC(O)c1cc2cnc(Nc3ccc(N4CCNCC4)cn3)nc2c(NC2CCOCC2)n1 (centres unmarked) [Compound 12] |
| < 10 nM | ≥ 100 nM | – | – | CC(C)CNc1nc([C@@H](C)O)cc2cnc(Nc3ccc(CN4CCC[C@H](O)C4)cn3)nc12 [Compound 1189] |
| – | – | < 10 nM | ≥ 100 nM | CC(C)Nc1nc([C@@H](C)O)cc2cnc(Nc3ccc(O[C@H]4CCNC4)cn3)nc12 [Compound 566] |

| IC50 [1, 3] | IC50 [2, 4] | IC50 [1, 5] | IC50 [2, 6] | SMILES |
| --- | --- | --- | --- | --- |
| < 10 nM | ≥ 100 nM | – | – | CC(C)Nc1nc(C(C)O)cc2cnc(Nc3ccc(C4COCCN4)cn3)nc12 (single isomer, unassigned) [Compound 866] |
| < 10 nM | ≥ 100 nM | – | – | CCCNc1nc([C@@H](C)O)cc2cnc(Nc3ccc(CN4CCC[C@H](O)C4)cn3)nc12 [Compound 1198] |
| < 10 nM | ≥ 100 nM | – | – | CC(C)Nc1nc([C@@H](C)O)cc2cnc(Nc3ccc(N4CCN(C[C@@H](C)O)CCC4=O)cn3)nc12 [Compound 721] |
| – | – | ≥ 100 nM | ≥ 100 nM | CC(C)Nc1nc(C(F)F)cc2cnc(Nc3ccc(NC(=O)CCO)cn3)nc12 [Compound 98] |
| – | – | < 10 nM | ≥ 100 nM | CCCN1CCN(Cc2ccc(Nc3ncc4cc([C@@H](C)O)nc(NC(C)(C)COC)c4n3)nc2)CC1 [Compound 243] |
| – | – | < 10 nM | ≥ 100 nM | COCC(C)(C)Nc1nc([C@@H](C)O)cc2cnc(Nc3ccc(CN4CCC(C(C)(C)O)CC4)cn3)nc12 [Compound 196] |
| < 10 nM | ≥ 100 nM | – | – | CCCNc1nc([C@@H](C)OC)cc2cnc(Nc3ccc(N4C[C@H]5C[C@@H]4CN5)nn3)nc12 [Compound 858] |
| < 10 nM | ≥ 100 nM | – | – | CC(C)Nc1nc([C@@H](C)O)cc2cnc(Nc3ccc(N4CCN(CC#N)CC4)nn3)nc12 [Compound 901] |
| < 10 nM | ≥ 100 nM | – | – | CCCCNc1nc([C@@H](C)OC)cc2cnc(Nc3ccc(N4CCNCC4)nn3)nc12 [Compound 855] |
| – | – | < 10 nM | 10 to 100 nM | OCc1cc2cnc(Nc3ccc(N4CCNCC4)cn3)nc2c(NC2CCCC2)n1 [Compound 6] |
| < 10 nM | ≥ 100 nM | – | – | CC(C)Nc1nc(C2(C)COC2)cc2cnc(Nc3ccc4c(n3)CCNC4)nc12 [Compound 887] |
| < 10 nM | ≥ 100 nM | – | – | CC(C)CNc1nc([C@@H](C)O)cc2cnc(Nc3ccc(CN4CCC[C@@H](O)C4)cn3)nc12 [Compound 1186] |
| – | – | 10 to 100 nM | ≥ 100 nM | COCC(C)(C)Nc1nc([C@@H](C)O)cc2cnc(Nc3ccc(N4CCC(O)CC4)nn3)nc12 [Compound 202] |
| – | – | < 10 nM | ≥ 100 nM | CC(C)Nc1nc(C(F)F)cc2cnc(Nc3ccc(CN4CCOCC4)cn3)nc12 [Compound 94] |
| – | – | < 10 nM | ≥ 100 nM | C[C@@H](O)c1cc2cnc(Nc3ccc(N4CCNCC4)nn3)nc2c(N[C@@H]2CCOC2)n1 [Compound 252] |
| – | – | < 10 nM | ≥ 100 nM | CC(=O)c1cc2cnc(Nc3ccc(N4CCNCC4)nn3)nc2c(NC2CCOCC2)n1 [Compound 330] |
| – | – | 10 to 100 nM | ≥ 100 nM | CC(=O)NCc1ccc(Nc2ncc3cc(C(F)F)nc(NC(C)C)c3n2)nc1 [Compound 124] |
| 10 to 100 nM | ≥ 100 nM | – | – | CO[C@H](C)c1nc(NC(C)C)c2nc(Nc3ccc(C(=O)N4CCNCC4)cn3)ncc2c1Cl [Compound 842] |
